From patent US11633505B2, “Nuclear magnetic resonance diagnostic agent, and method for detecting or diagnosing state of cell, tissue or organ in subject using same” (National University Corporation Kumamoto University, priority 2012, dated 2023)

Test system: Brain tumor (9 L gliosarcoma)
Assay: MRI (7T, 2D-RARE) T1/T2 measurement of excised subcutaneous tumor after ALA administration
Conditions: for Average T1 value / Average T2 value: ROI in excised tumor portion, ALA 100 mg/kg, 3 hours after administration, 7T-MRI, mean ± standard deviation

NCC(=O)CCC(=O)O [ALA, 5-aminolevulinic acid]
Average T1 value (First average): 2004 ± 73 ms | Average T2 value (First average): 146 ± 22 ms | Average T1 value (Second average): 2188 ± 210 ms | Average T2 value (Second average): 123 ± 5.7 ms | signal ratio (ALA administration group/control group) of T2 value (first measurement): approximately 1.4 times | signal ratio (ALA administration group/control group) of T2 value (second measurement): approximately 1.3 times
